Reference: patent publication US8168193B2, “Molecules, compositions, methods and kits for applications associated with flaviviruses” (National University of Singapore, priority 2003, dated 2012)
No end group written: not given here.

Experiments:
West Nile virus [1] = experiment: Competitive physiological ligand binding assay, virus entry into Vero cells; format: cell-based; details: Vero cells incubated with ligand 1 hr, then radiolabeled virus 1 hr at 37° C.
Experimental: Competitive physiological ligand binding assay with fibronectin, vitronectin, heparin, chrondriotin sulphate, laminin and the peptides RGD1 and RGE1 reported in the sequence listing as SEQ ID NO: 6 and SEQ ID NO:7 was carried out. In particular Vero cells were incubated with different concentrations of ECM proteins, RGD peptides, or anti-integrin antibodies at 4° C. or 37° C. for 1 hr, washed, incubated with 50 μl of radiolabeled WNV, JEV at 37° C. for 1 hr and assessed for virus entry.

West Nile virus [2] = experiment: Protease, phospholipase, glycosidase, periodate and lectin pretreatment of Vero cells, then West Nile virus infection, plaque assay; format: cell-based; details: Vero cells pretreated 45 min at 25° C.; for effect of pretreatment of Vero cells on West Nile virus entry/infection: plaque assay at 12 hours p.i.
Experimental: Cell monolayers (Vero cells or N2A) of approximately 5×10^6 cells were washed twice with phosphate buffer saline (PBS) before enzyme treatment. Cell monolayers were incubated with the proteases and phospholipases, glycosidases and lectins (as listed below) in PBS at a pH of 7.0 for 45 min at 25° C. […] Cell monolayers were then incubated with West Nile virus (MOI=10) at 37° C. for 1 hour. Excess virus particles were inactivated with sodium citrate buffer (pH 2.8) for 10 minutes and the cell monolayer washed twice with PBS. Vero cells were then incubated at 37° C. for 12 hours. At 12 hours p.i., virus titers from the treated samples were determined by plaque assays. Three independent experiments were conducted for each set of enzymes used.
The enzymes used were; Proteases: Proteinase K (EC 3.4.21.64) from Tritirachium album, concentration of 10 μg/ml, 1 μg/ml & 0.1 μg/ml; α-chymotrypsin (EC 3.4.21.1) from bovine pancreas, concentration of 10 μg/ml & 1 μg/ml; trypsin (EC 3.4.21.4) from bovine pancreas, concentration of 10 μg/ml, 1 μg/ml & 0.1 μg/ml; Bromelain (EC 3.4.22.32) from pineapple stem, concentration of 20 mUnit/ml, 2 mUnit/ml & 0.2 mUnit/ml; Papain (EC 3.4.22.2) from Carica papaya, concentration of 50 mUnit/ml & 10 mUnit/ml. Phospholipases: Phospholipase A2 (EC 3.1.1.4) from bovine pancreas, concentration of 1 UNIT/ml & 0.1 UNIT/ml; Phospholipase C (EC 3.1.1.4.3) from Clostridium perfringes, concentration of 10 UNIT/ml & 1 UNIT/ml; Phospholipase D (EC 3.1.4.4) from peanut, concentration of 100 UNIT/ml & 10 UNIT/ml; Glycosidases: Endoglycosidase H (EC 3.2.1.96) from Streptomyces plicatus, concentration of 100 mUNIT/ml & 10 mUNIT/ml; O-glycosidase (EC3.2.1.97) from Diploccus pneumoniae, concentration of 1 mUNIT/ml & 0.1 mUNIT/ml; α-mannosidase (EC 3.2.1.24) from almonds, concentration of 1000 μ/ml, 100 μg/ml & 10 μg/ml; α-Fucosidase (EC 3.2.1.11) from almond meal, concentration of 100 mUNIT/ml & 10 mUNIT/ml; Heparinase I (EC 4.2.2.7) and Heparinase III (EC 4.2.2.2.8) from Flavobacterium heparinum, concentration of 1 UNIT/ml & 0.1 UNIT/ml. Lectins: Concanavalin-A from Jack bean, wheat germ agglutinin from Triticum vulgaris, phytohemagglutinin from Phaseolus spp., concentration of 1000 μg/ml & 100 μg/ml; Sodium periodate concentration of 1 mM & 0.1 mM. Cell viability after enzyme treatment was assessed by Trypan blue staining and observation under phase contrast microscope BX 60.
The enzymes or chemicals were used at concentrations known to be effective in reducing the entry of other known viruses (Borrow and Oldstone, 1992; Ramos-Castaneda et al., 1997; Salas-Benito and del Angel, 1997; Martinez-Barragan and del Angel, 2001). Results are expressed as the number of log unit inhibition with respect to untreated samples. At the same time, cell viability after treatments was also assessed by Trypan blue exclusion method.

[3] = system: 105-kDa cell receptor protein; experiment: Virus Overlay Protein Binding Assay (VOPBA) on Vero plasma membrane proteins; details: for West Nile virus binding to treated membrane proteins of Vero cells (VOPBA): Vero plasma membrane proteins; for West Nile virus binding after removal of papain (VOPBA): Vero cells, papain 50 mU/ml 45 minutes, 0, 2 and 4 hours after removal, with or without cycloheximide 100 μg/ml
WNV [4] = details: Vero cells, EDTA 3-12 mM, 2 hrs at 37° C.
[5] = system: 105-kDa cell receptor protein; experiment: Virus Overlay Protein Binding Assay (VOPBA) on N2A plasma membrane proteins
WNV [6] = experiment: Competitive inhibition of WNV entry into Vero cells with soluble recombinant WNV envelope DIII; format: cell-based, West Nile virus; details: 5 to 100 μg/ml, 30 min at 37° C.
Experimental: (§1) Vero cells were first incubated with different concentration (5 to 100 μg/ml) of DIII protein or BSA for 30 min at 37° C. Excess or unbound protein is removed by washing thrice with PBS. Radiolabeled WNV or Dengue virus (250 plaque forming unit, PFU) is added and incubated for 1 h at 37° C. Virus entry into Vero cells was determined by radioactive counts from a scintillation counter.

Dengue virus = experiment: Competitive inhibition of Dengue virus entry into Vero cells with soluble recombinant WNV envelope DIII; format: cell-based; details: at high concentration used
Experimental: as §1

## laminin
West Nile virus [1]
  inhibition of West Nile virus infection by competitive ligands: partial inhibition

## α-Fucosidase
West Nile virus [2]
  effect of pretreatment of Vero cells on West Nile virus entry/infection: minimal effect

## Concanavalin-A
West Nile virus [2]
  effect of pretreatment of Vero cells on West Nile virus entry/infection: prevented the entry
[3]
  West Nile virus binding to treated membrane proteins of Vero cells (VOPBA): block the binding

## C[C@@H]1C[C@@H]([C@H](O)CC2CC(=O)NC(=O)C2)C(=O)[C@@H](C)C1 [cycloheximide]
[3]
  West Nile virus binding after removal of papain (VOPBA): virus binding was also observed

## O=C(O)CN(CCN(CC(=O)O)CC(=O)O)CC(=O)O [EDTA]
WNV [4]
  binding and subsequent entry of West Nile virus: did not block

## phytohemagglutinin
[3]
  West Nile virus binding to treated membrane proteins of Vero cells (VOPBA): no effect

## OCCS [β-mercaptoethanol]
[5]
  West Nile virus binding to treated membrane proteins of N2A cells (VOPBA): did not disrupt virus binding
[3]
  West Nile virus binding to treated membrane proteins of Vero cells (VOPBA): did not disrupt virus binding

## O-glycosidase
West Nile virus [2]
  effect of pretreatment of Vero cells on West Nile virus entry/infection: minimal effect
[5]
  West Nile virus binding to treated membrane proteins of N2A cells (VOPBA): did not affect
[3]
  West Nile virus binding to treated membrane proteins of Vero cells (VOPBA): did not affect

## [Na+].[O-][I+3]([O-])([O-])[O-] [sodium periodate]
West Nile virus [2]
  effect of pretreatment of Vero cells on West Nile virus entry/infection: substantially reduced
[3]
  West Nile virus binding to treated membrane proteins of Vero cells (VOPBA): reduced in a dosage-dependent manner

## α-mannosidase
West Nile virus [2]
  effect of pretreatment of Vero cells on West Nile virus entry/infection: significant inhibition
[5]
  West Nile virus binding to treated membrane proteins of N2A cells (VOPBA): No binding
[3]
  West Nile virus binding to treated membrane proteins of Vero cells (VOPBA): No binding

## DIII protein: soluble His-tagged recombinant West Nile virus envelope domain III (350-390), comprising SEQ ID NO: 19 (SIPKLEIAGXFKDL; X: residue not identified in the source)
WNV [6]
  inhibition of entry of WNV into Vero cells: significantly blocked
Dengue virus
  inhibition of entry of Dengue virus into Vero cells: slightly block

## Heparinase III
West Nile virus [2]
  effect of pretreatment of Vero cells on West Nile virus entry/infection: minimal effect

## Heparinase I
West Nile virus [2]
  effect of pretreatment of Vero cells on West Nile virus entry/infection: minimal effect

## RGD peptide: peptide RGD1 reported in the sequence listing as SEQ ID NO: 6 (RFDS; RGD1 amino acid sequence)
West Nile virus [1]
  inhibition of West Nile virus infection by competitive ligands: partial inhibition

## fibronectin
West Nile virus [1]
  inhibition of West Nile virus infection by competitive ligands: partial inhibition

B1: vitronectin (protein, UniProt P04004 20-478, looked up)
Vitronectin: DQESCKGRCTEGFNVDKKCQCDELCSYYQSCCTDYTAECKPQVTRGDVFTMPEDEYTVYDDGEEKNNATVHEQVGGPSLTSDLQAQSKGNPEQTPVLKPEEEAPAPEVGASKPEGIDSRPETLHPGRPQPPAEEELCSGKPFDAFTDLKNGSLFAFRGQYCYELDEKAVRPGYPKLIRDVWGIEGPIDAAFTRINCQGKTYLFKGSQYWRFEDGVLDPDYPRNISDGFDGIPDNVDAALALPAHSYSGRERVYFFKGKQYWEYQFQHQPSQEECEGSSLSAVFEHFAMMQRDSWEDIFELLFWGRTSAGTRQPQFISRDWHGVPGQVDAAMAGRIYISGMAPRPSLAKKQRFRHRNRKGYRSQRGHSRGRNQNSRRPSRATWLSLFSSEESNLGANNYDDYRMDWLVPATCEPIQSVFFFSGDKYYRVNLRTRRVDTVDPPYPRSIAQYWLGCPAPGHL
notes: ECM protein, physiological ligand for integrin αVβ3
West Nile virus [1]
  inhibition of West Nile virus infection by competitive ligands: partial inhibition

B2: Endoglycosidase H (protein, UniProt P04067 43-313, looked up)
Endo-beta-N-acetylglucosaminid …: APAPVKQGPTSVAYVEVNNNSMLNVGKYTLADGGGNAFDVAVIFAANINYDTGTKTAYLHFNENVQRVLDNAVTQIRPLQQQGIKVLLSVLGNHQGAGFANFPSQQAASAFAKQLSDAVAKYGLDGVDFDDEYAEYGNNGTAQPNDSSFVHLVTALRANMPDKIISLYNIGPAASRLSYGGVDVSDKFDYAWNPYYGTWQVPGIALPKAQLSPAAVEIGRTSRSTVADLARRTVDEGYGVYLTYNLDGGDRTADVSAFTRELYGSEAVRTP
notes: Endoglycosidase H (EC 3.2.1.96) from Streptomyces plicatus
West Nile virus [2]
  effect of pretreatment of Vero cells on West Nile virus entry/infection: significant inhibition
[5]
  West Nile virus binding to treated membrane proteins of N2A cells (VOPBA): No binding
[3]
  West Nile virus binding to treated membrane proteins of Vero cells (VOPBA): No binding

B3: Papain (protein, UniProt P00784 134-345, looked up)
Papain: IPEYVDWRQKGAVTPVKNQGSCGSCWAFSAVVTIEGIIKIRTGNLNEYSEQELLDCDRRSYGCNGGYPWSALQLVAQYGIHYRNTYPYEGVQRYCRSREKGPYAAKTDGVRQVQPYNEGALLYSIANQPVSVVLEAAGKDFQLYRGGIFVGPCGNKVDHAVAAVGYGPNYILIKNSWGTGWGENGYIRIKRGTGNSYGVCGLYTSSFYPVKN
notes: Papain (EC 3.4.22.2) from Carica papaya, a cysteine endopeptidase
West Nile virus [2]; virus titers at 12 hours p.i., with respect to untreated samples
  log unit inhibition of West Nile virus infection: ~5 log unit
[5]
  West Nile virus binding to treated membrane proteins of N2A cells (VOPBA): abolished
[3]
  West Nile virus binding after removal of papain (VOPBA): No virus binding
  West Nile virus binding to treated membrane proteins of Vero cells (VOPBA): abolished
